From patent US8895035B2, “Alkoxyimino derivative and pest control agent” (Kumiai Chemical Industry Co., Ltd, priority 2010, dated 2014)

How the values were obtained:
Type in all cases: in vivo
[1] = test system: Nilaparvata lugens Stál (brown rice planthopper); assay: Insecticidal action test for Nilaparvata lugens Stál (immersed sprouting rice); conditions: 144 h, 500 ppm active ingredient, sprouting unhulled rice immersed, 3-age larvae, 25° C., after 6 days, read-out: insect mortality
Experimental: A wettable powder prepared based on Formulation Example 2 was diluted with water so that the concentration of active ingredient became 500 ppm. In the diluted formulation were immersed sprouting unhulled rice. The immersed rice was placed in a plastic cup of 60 ml. Into the plastic cup were released 10 3-age larvae of Nilaparvata lugens Stál (brown rice planthopper). The cup was covered with a cap and placed in a thermostat of 25° C. After 6 days, the number of living insects was counted and the mortality of insect was calculated using the calculation formula of Mathematical Expression 1.

[2] = test system: Brown planthopper (Nilaparvata lugens); assay: Trial of systematic insecticidal activity against brown planthopper; conditions: 144 h, 1,800 ppm active ingredient, 250 μl poured to rice-plant foot of rice seedlings, 3-age larvae, 25° C., after 6 days, read-out: insect mortality
Experimental: A wettable powder prepared based on Formulation Example 2 was diluted with water so that the concentration of active ingredient became 1,800 ppm. 250 μl of the diluted formulation was poured to the rice-plant foot of 2.5-leaf age rice seedlings planted in a paper pot of 1.5 cm (length)×1.5 cm (width)×3 cm (height). Then, the paper pot was placed in a plastic cup of 700 ml. Into the plastic cup were released 5 3-age larvae of Nilaparvata lugens Stál (brown rice planthopper). The cup was covered with a cap and placed in a thermostat of 25° C. After 6 days, the number of living insects was counted and the mortality of insect was calculated using the calculation formula of Mathematical Expression 1.

[3] = test system: Aphis gossipii Glover (cotton aphid, melon aphid); assay: Insecticidal action test for Aphis gossipii Glover (seedling immersion); conditions: 72 h, 500 ppm active ingredient, cucumber seedlings with hatchlings immersed, 25° C., after 3 days, read-out: insect mortality
Experimental: A wettable powder prepared based on Formulation Example 2 was diluted with water so that the concentration of active ingredient became 500 ppm. In the resulting liquid were immersed cucumber seedlings on which the hatchlings of Aphis gossipii Glover were parasitic, after which the cucumber seedlings were dried in the air. The resulting cucumber seedlings were placed in a thermostat of 25° C. After 3 days, the number of living insects was calculated and the mortality of insect was calculated using the calculation formula of the following Mathematical Expression 1. Insect mortality (%)=[1−(number of living insects)/(number of tested insects)]×100 [Mathematical Expression 1]

[4] = test system: Aphis gossipii Glover (cotton aphid, melon aphid); assay: Insecticidal action test for Aphis gossipii Glover (drench); conditions: soil, 72 h, 500 ppm active ingredient, 5 ml drenched to foot of cucumber seedlings with hatchlings, 25° C., after 3 days, read-out: insect mortality
Experimental: A wettable powder prepared based on Formulation Example 2 was diluted with water so that the concentration of active ingredient became 500 ppm. 5 ml of the resulting diluted formulation was drenched to the […] foot of cucumber seedlings on which the hatchlings of Aphis gossipii Glover were parasitic. The resulting cucumber seedlings were placed in a thermostat of 25° C. After 3 days, the number of living insects was calculated and the mortality of insect was calculated using the calculation formula of Mathematical Expression 1.

SMILES | mortality at 500 ppm [1] [%] | mortality at 1800 ppm [2] [%] | mortality at 500 ppm [3] [%] | mortality at 500 ppm [4] [%]
CCCON=C(C(N)=O)C(=NOCCC)n1cncn1 [IV-101, 1-[2-carbamoyl-1,2-bis(n-propoxyimino)ethyl]-1H-1,2,4-triazole] | ≥ 90 | ≥ 90 |  | 
CC(=NOC(C)C)C(=NOC(C)C)n1ccnc1 [I-273, 1-(1,2-diisopropoxyiminopropyl)imidazole] | ≥ 90 | ≥ 90 | ≥ 90 | 
CC(C)ON=C(C(=NOC(C)C)n1cncn1)n1cncn1 [I-212, 1,2-diisopropoxyimino-1,2-bis(1H-1,2,4-triazol-1-yl)ethane] | ≥ 90 |  | ≥ 90 | 
CC(C)ON=C(Br)C(=NOC(C)C)n1cncn1 [I-142, 1-(2-bromo-1,2-diisopropoxyiminoethyl)-1H-1,2,4-triazole] | ≥ 90 | ≥ 90 | ≥ 90 | 
CON=C(C(=NOC(C)C)C(N)=S)n1cncn1 [II-224, 1-(2-isopropoxyimino-2-thiocarbamoyl-1-methoxyiminoethyl)-1H-1,2,4-triazole] | ≥ 90 | ≥ 90 | ≥ 90 | 
CCCON=C(C#N)C(=NOCCC)n1cncn1 [IV-90, 1-[2-cyano-1,2-bis(n-propoxyimino)ethyl]-1H-1,2,4-triazole] | ≥ 90 |  | ≥ 90 | 
CC(C)ON=C(C#N)C(=NOC(C)C)n1cncn1 [I-50, 1-(2-cyano-1,2-diisopropoxyiminoethyl)-1H-1,2,4-triazole] | ≥ 90 | ≥ 90 | ≥ 90 | 
CC(C)CON=C(N)C(=NOC(C)C)n1cncn1 [I-121, 1-(2-amino-2-isobutoxyimino-1-isopropoxyiminoethyl)-1H-1,2,4-triazole] | ≥ 90 |  | ≥ 90 | 
CSC(=NOC(C)C)C(=NOC(C)C)n1cncn1 [I-228, 1-(2-methylthio-1,2-diisopropoxyiminoethyl)-1H-1,2,4-triazole] | ≥ 90 | ≥ 90 | ≥ 90 | 
CC(=NOC(C)C)C(=NOC(C)C)n1ccnc1S [V-10, 1-(1,2-diisopropoxyiminopropyl)-2-mercaptoimidazole] | ≥ 90 |  | ≥ 90 | 
COC(=NOC(C)C)C(=NOC(C)C)n1cncn1 [I-165, 1-(1,2-diisopropoxyimino-2-methoxyethyl)-1H-1,2,4-triazole] | ≥ 90 | ≥ 90 | ≥ 90 | 
N#CC(=NOCC(F)(F)C(F)(F)F)C(=NOCC(F)(F)F)n1cncn1 [IV-185, 1-[2-cyano-2-(2,2,3,3,3-pentafluoro-n-propoxyimino)-1-(2,2,2-trifluoroethoxyimino)ethyl]-1H-1,2,4-triazole] | ≥ 90 |  |  | 
CC(C)ON=C(C(N)=O)C(=NOC(C)C)n1cncn1 [I-73, 1-(2-carbamoyl-1,2-diisopropoxyiminoethyl)-1H-1,2,4-triazole] | ≥ 90 |  |  | 
CC(C)ON=C(C(=NOC(C)C)n1cncn1)c1nnn[nH]1 [I-213, 1-[1,2-diisopropoxyimino-2-(1H-tetrazol-5-yl)ethyl]-1H-1,2,4-triazole] | ≥ 90 |  |  | 
CON=C(C(=NOC(C)C)C(=O)OC)n1cncn1 [II-221, 1-(2-isopropoxyimino-2-methoxycarbonyl-1-methoxyiminoethyl)-1H-1,2,4-triazole] | ≥ 90 |  | ≥ 90 | 
CCCCON=C(C#N)C(=NOCC)n1cncn1 [III-51, 1-(2-n-butoxyimino-2-cyano-1-ethoxyiminoethyl)-1H-1,2,4-triazole] | ≥ 90 |  | ≥ 90 | 
CCSC(=O)C(=NOC(C)C)C(=NOC)n1cncn1 [II-222, S-ethyl 2-isopropoxyimino-3-methoxyimino-3-(1H-1,2,4-triazol-1-yl)propanethioate] | ≥ 90 |  | ≥ 90 | 
CC(C)ON=C(Cl)C(=NOC(C)C)n1cncn1 [I-4, 1-(2-chloro-1,2-diisopropoxyiminoethyl)-1H-1,2,4-triazole] | ≥ 90 | ≥ 90 | ≥ 90 | ≥ 90
CCCCON=C(C(N)=O)C(=NOCC)n1cncn1 [III-74, 1-(2-n-butoxyimino-2-carbamoyl-1-ethoxyiminoethyl)-1H-1,2,4-triazole] | ≥ 90 |  |  | 
